Experimental findings from patent US10898542B2, “Topical compositions comprising OB-fold variants” (AFFILOGIC, priority 2013, dated 2021) are described below.

A short description of data set [1]: Penetration through rabbit cornea in reaction chambers. The data set is classed as in vitro ADME. The note with it: male, Fauve de Bourgogne, 37° C., sampling 0 h, 2 h and 4 h, 0.5 cm^2, read-out: apparent permeability.
Description: Three male rabbits (Fauve de Bourgogne) were used.
The principle is the same as for the skin permeability.
3 ml of formulation containing each nanofitin were placed on the donor side of the reaction chambers and 3 ml of PBS were placed on the receiver side. Freshly taken corneal tissues were placed between the two half-chambers.
The temperature was maintained at 37° C. throughout the study and the oxygenation was provided by continuous perfusion of carbogen (95% O2, 5% CO2). The exchange surface area was 0.5 cm^2.
At each following sampling period: 0 h, 2 h and 4 h, 500 μl of liquid were taken from the receiver side and replaced with PBS. • 100 μl of liquid were taken from the donor side and were not replaced.
At the end of the sampling period, the 0.5 cm^2 of corneas were removed from the reaction chamber and scraped with a scalpel. 1 ml of PBS was added to the samples, which were homogenized.
The subject of data set [2] is skin inflammation similar to psoriasis caused by imiquimod (Aldara). The data set can be described thus: Imiquimod-induced psoriasis-type ear inflammation, topical treatment, PASI score. The data set is classed as in vivo, Balb/c mice. The settings on record: cream on right ear; mice licked their ears, systemic effect after ingestion very probable. The procedure:
In order to verify the skin penetration of nanofitins and the preservation of their properties, in particular their property of neutralizing the receptor-ligand relationship, inflammation models of psoriasis type were used and the reduction in inflammation (PASI score) after topical administration of anti-inflammatory nanofitins directly to the skin was measured.
These nanofitins target two different cytokines involved in psoriasiform inflammation, but with different localizations, from the basal layers of the dermis just into the epidermis (Nestle et al., Nature Reviews Immunology 9, 679-691, 2009). The nanofitins in question neutralize the binding of the targeted cytokines with their receptor. In order to inhibit the action of these cytokines during inflammation of psoriasis type, it is necessary to reach the layers where they are located, either systemically as therapeutic antibodies do, or topically via the skin. The measurement of an anti-inflammatory effect by topical administration of nanofitins thus attests to penetration of the nanofitins through the skin and to an associated therapeutic efficacy.
The local application of imiquimod (Aldara) to the internal face of the ears of mice causes a skin inflammation similar to psoriasis (Van der Fits et al., J Immunol. 2009 May 1; 182(9):5836-45, Flutter et al., Eur J Immunol. 2013 December; 43(12):3138-46). […]

A short description of data set [3]: Franz cell diffusion test, penetration through human skin ex vivo. The data set is classed as in vitro ADME. The settings on record: human skin 1 mm, 100 μl at 5 mg/ml, 24 h, PBS pH 7.4 receiver, 2 cm^2. An excerpt: The test used is the Franz cell diffusion test.
Franz cells are used to determine, ex vivo, the skin penetration of exogenous substances, and to actually measure the speed of passage through the various layers of the skin barrier of the molecules constituting the active ingredient deposited at the surface of the skin.
A solution containing the molecule to be studied is deposited in a “donor” department of the device. The molecule then diffuses through a membrane (in the case in point the skin) and is collected in a “receiver” compartment.
In practice, after having removed the hypodermal layer (adipose tissue), the skin fragment is deposited on a diffusion cell, called a Franz cell. The deep face of the dermis is in contact with a receiver solution which is supposed to replace the interstitial fluid of the skin. A solution containing the molecule studied is deposited on top of the skin. […]
The nanofitin concentration was measured on each of the samples taken, using the BioLayer Interferometry technology which makes it possible to measure the interaction between two proteins. In the case in point, the nanofitin content is measured by the recognition of a poly-Histidine tag which is coupled to said nanofitins beforehand.

Consider `CCn1cc(C(=O)O)c(=O)c2cc(F)c(N3CCNCC3)cc21` [norfloxacin], for which the Papp at 4 h in data set [1] turned out to be 11 ×10⁻⁶ cm/s.
Turning to `C[C@H]1C[C@H]2[C@@H]3CCC4=CC(=O)C=C[C@]4(C)[C@@]3(F)[C@@H](O)C[C@]2(C)[C@@]1(O)C(=O)CCl` [clobetazole], in data set [2], the “inflammation on the nontreated left ear” value is “reduction in the inflammation on the nontreated left ear”.
On to `Cn1c(=O)c2c(ncn2C)n(C)c1=O` [caffeine], for which the “percentage found on the receiver side (skin permeability)” value in data set [3] is approximately 10%.
